Patent US7312031B1, “Alpha-complementation viral fusion assay” (The Salk Institute for Biological Studies, priority 2002, dated 2007)

Tests used:
[1] = tested on: fusion of 293T.CD4.Ω with 293T/SF33; assay: alpha-complementation fusion assay, 293T.CD4.Ω with 293T/SF33; type: cell-based, human; settings: FIG. 5 and 6; SF33 Env (CXCR4-specific); 293T.CD4.Ω stable line
Experimental: Remove the plates from the water bath, spin 4000 rpm (Eppendorf tabletop centrifuge) for 1 minute to firmly pellet cells, aspirate medium, and add 100 μl of Galacto-Star lysis buffer (Perkin-Elmer). Mix well and incubate at room temperature for 5 minutes. Spin lysates 5 minutes at 4000 rpm and transfer 10 μl to a black 96-well plate (Costar). Add 100 μl of Galacto-Star substrate using a multi-channel pipettor. After 60 minutes, read β-gal activity in plates in a Packard TopCount luminometer for 15 s/well.
Transfect 293 cells with expression vector for HIV envelope protein, B-gal-α and HIV-1 Rev. Vectors used express CCR5-specific Envs (JFRL, ADA) or CXCR4-specific Envs (SF33 or JC2) driven by the cytomegalovirus promoter. Transfect the cells by lipofection or calcium phosphate standard methods.
Harvest 293-CD4.CCR5.omega cells with PBS/EDTA and count.
Prepare a microtiter plate by adding 2.5×10^5 293-CD4.CCR5.omega cells to each well with a multi-channel pipettor or robot in a volume of 50 μl of medium. Add inhibitors at different concentrations to each of the wells, in duplicate. […]

[2] = tested on: fusion of 293T.CD4.Ω/CCR5 with 293T/ADA; assay: alpha-complementation fusion assay, 293T.CD4.Ω/CCR5 with 293T/ADA; type: cell-based, human; settings: FIG. 7-9, ADA Env (CCR5-specific)
Experimental: FIG. 7 depicts the fusion of 293T.CD4.Ω/CCR5 with 293T/ADA in the presence of TAK-779.
293T (ATCC cat #CRL-1573) or HeLa (ATCC cat #CCL-2) cells (2.5×10^6) were seeded in 10 cm plates 24 hours prior to transfection. The next morning, cells were transfected with 21 μg of DNA, 7 μg pSCTZ-alpha-N85, 7 μg pRSV-Rev (Hope et al., Proc. Nat'l. Acad. Sci. U.S.A. 87: 7787-91 (1990)) and 7 μg of envelope expression vector (pSV-ADA, pSV-JRFL (Deng et al., Nature 381: 661-666 (1996)), or pCAGGS-SF33 (York-Higgins et al., J. Virol. 64: 4016-4020 (1990)). […]
Remove the plates from the water bath, spin 4000 rpm (Eppendorf tabletop centrifuge) for 1 minute to firmly pellet cells, aspirate medium, and add 100 μl of Galacto-Star lysis buffer (Perkin-Elmer). […] After 60 minutes, read β-gal activity in plates in a Packard TopCount luminometer for 15 s/well. […]
Two days later, remove the transfected cells from plates by incubating with phosphate-buffered saline containing 5 mM EDTA. The cells are then counted on hemocytometer. […]
After four hours, read β-gal activity as in Example 1.

c1cc(CN2CCCNCCNCCCNCC2)ccc1CN1CCCNCCNCCCNCC1 [AMD3100]
inhibition of fusion reaction [1]: inhibits the fusion reaction in a concentration-dependent manner

Cc1ccc(-c2ccc3c(c2)C=C(C(=O)Nc2ccc(C[N+](C)(C)C4CCOCC4)cc2)CCC3)cc1.[Cl-] [TAK-779]
inhibition of fusion reaction [2]: inhibits the fusion reaction in a concentration-dependent manner
